Measurements taken from patent US6869589B1, “Cryptate compounds and methods for diagnosis and therapy” (Australian Nuclear Science & Technology Organization, priority 1999, dated 2005).
Read-outs that look alike come from different tables or passages of the source. Each block holds one molecule with its values, some of them ahead of it.

Tests used:
[1] = Biodistribution of ^64Cu complexes in balb/c mice; settings: for Clearance of the complex (biodistribution, in words): if the ligand detaches from the antibody
Experimental: (§1) The biodistribution of the ^64Cu complexes of compounds (1), (3) and (4) (0.10 ml intravenous injection) were evaluated in balb/c mice (5 animals per time point) at 3, 5, 10, 15, 20 and 30 minute time intervals. Biodistribution studies were performed in duplicate.

[2] = Serum stability of ^67Cu complex in human plasma at 37° C., size exclusion chromatography; format: in vitro ADME; settings: first 174 hours
Experimental: Serum stability studies were conducted by incubating a ^67Cu complex of related species (4) in human plasma at 37° C. [drawing 11]
At various time intervals, the complex was separated from the plasma by size exclusion chromatography and the complex breakdown was assessed. […] (FIGS. 1a and 1b).

[3] = Effect of pH on complexation of ^64Cu by compound (3), monitored by ITLC-SG; format: physicochemical
Experimental: The effect of pH on complexation of ^64Cu by compound (3) was investigated. Compound (3) was diluted into buffers of pH 3.0, 4.0, 5.0, 6.0, 7.0, 8.0 and 9.0. A sufficient amount of ^64Cu was added and the rate of complexation was monitored at (t=1, 2.5, 5, 10, 60 and 90 mins) (see method below) by Instant Thin Layer Chromatography (ITLC-SG). Complete complexation (>98%) was achieved within 1 min for all pH ≧4.0. The rate of complexation at pH 3.0 was slower. (FIG. 2).
Monitoring Complexation by ITLC-SG
ITLC-SG strips (10 cm×0.8 cm) were spotted with ˜1 μL of reaction mixture 1 cm from the bottom of the strip (origin) and were developed in a solvent containing 0.1 M sodium acetate (pH 4.5): ethanol=9:1. ^64Cu-compound (3) remains at the origin (Rf=0.0), and “free” ^64Cu appears at the solvent front (Rf=1.0).

[4] = mouse, in vivo
Experimental: as §1

% injected dose per gram ([1]; BLADDER, 3 MIN): 13.15 % INJECTED DOSE PER GRAM
% injected dose per gram ([1]; BLADDER, 5 MIN): 28.05 % INJECTED DOSE PER GRAM
% injected dose per gram ([1]; BLADDER, 10 MIN): 69.91 % INJECTED DOSE PER GRAM
% injected dose per gram ([1]; BLADDER, 15 MIN): 8.17 % INJECTED DOSE PER GRAM
% injected dose per gram ([1]; BLADDER, 20 MIN): 16.38 % INJECTED DOSE PER GRAM
% injected dose per gram ([1]; BLADDER, 30 MIN): 25.38 % INJECTED DOSE PER GRAM
% injected dose per gram ([1]; BLOOD, 3 MIN): 8.25 % INJECTED DOSE PER GRAM
% injected dose per gram ([1]; BLOOD, 5 MIN): 7.08 % INJECTED DOSE PER GRAM
% injected dose per gram ([1]; BLOOD, 10 MIN): 4.41 % INJECTED DOSE PER GRAM
% injected dose per gram ([1]; BLOOD, 15 MIN): 2.71 % INJECTED DOSE PER GRAM
% injected dose per gram ([1]; BLOOD, 20 MIN): 1.40 % INJECTED DOSE PER GRAM
% injected dose per gram ([1]; BLOOD, 30 MIN): 1.07 % INJECTED DOSE PER GRAM
% injected dose per gram ([1]; BONE, 3 MIN): 1.60 % INJECTED DOSE PER GRAM
% injected dose per gram ([1]; BONE, 5 MIN): 1.56 % INJECTED DOSE PER GRAM
% injected dose per gram ([1]; BONE, 10 MIN): 1.28 % INJECTED DOSE PER GRAM
% injected dose per gram ([1]; BONE, 15 MIN): 1.60 % INJECTED DOSE PER GRAM
% injected dose per gram ([1]; BONE, 20 MIN): 0.89 % INJECTED DOSE PER GRAM
% injected dose per gram ([1]; BONE, 30 MIN): 0.65 % INJECTED DOSE PER GRAM
% injected dose per gram ([1]; GIT, 3 MIN): 2.62 % INJECTED DOSE PER GRAM
% injected dose per gram ([1]; GIT, 5 MIN): 2.16 % INJECTED DOSE PER GRAM
% injected dose per gram ([1]; GIT, 10 MIN): 1.49 % INJECTED DOSE PER GRAM
% injected dose per gram ([1]; GIT, 15 MIN): 1.07 % INJECTED DOSE PER GRAM
% injected dose per gram ([1]; GIT, 20 MIN): 0.89 % INJECTED DOSE PER GRAM
% injected dose per gram ([1]; GIT, 30 MIN): 0.80 % INJECTED DOSE PER GRAM
% injected dose per gram ([1]; HEART, 3 MIN): 3.25 % INJECTED DOSE PER GRAM
% injected dose per gram ([1]; HEART, 5 MIN): 2.66 % INJECTED DOSE PER GRAM
% injected dose per gram ([1]; HEART, 10 MIN): 1.60 % INJECTED DOSE PER GRAM
% injected dose per gram ([1]; HEART, 15 MIN): 1.08 % INJECTED DOSE PER GRAM
% injected dose per gram ([1]; HEART, 20 MIN): 0.51 % INJECTED DOSE PER GRAM
% injected dose per gram ([1]; HEART, 30 MIN): 0.47 % INJECTED DOSE PER GRAM
% injected dose per gram ([1]; KIDNEY, 3 MIN): 20.08 % INJECTED DOSE PER GRAM
% injected dose per gram ([1]; KIDNEY, 5 MIN): 18.62 % INJECTED DOSE PER GRAM
% injected dose per gram ([1]; KIDNEY, 10 MIN): 14.79 % INJECTED DOSE PER GRAM
% injected dose per gram ([1]; KIDNEY, 15 MIN): 7.52 % INJECTED DOSE PER GRAM
% injected dose per gram ([1]; KIDNEY, 20 MIN): 25.99 % INJECTED DOSE PER GRAM
% injected dose per gram ([1]; KIDNEY, 30 MIN): 30.26 % INJECTED DOSE PER GRAM
% injected dose per gram ([1]; LIVER, 3 MIN): 1.81 % INJECTED DOSE PER GRAM
% injected dose per gram ([1]; LIVER, 5 MIN): 1.59 % INJECTED DOSE PER GRAM
% injected dose per gram ([1]; LIVER, 10 MIN): 1.16 % INJECTED DOSE PER GRAM
% injected dose per gram ([1]; LIVER, 15 MIN): 0.64 % INJECTED DOSE PER GRAM
% injected dose per gram ([1]; LIVER, 20 MIN): 5.01 % INJECTED DOSE PER GRAM
% injected dose per gram ([1]; LIVER, 30 MIN): 5.76 % INJECTED DOSE PER GRAM
% injected dose per gram ([1]; LUNGS, 3 MIN): 5.85 % INJECTED DOSE PER GRAM
% injected dose per gram ([1]; LUNGS, 5 MIN): 5.28 % INJECTED DOSE PER GRAM
% injected dose per gram ([1]; LUNGS, 10 MIN): 2.84 % INJECTED DOSE PER GRAM
% injected dose per gram ([1]; LUNGS, 15 MIN): 2.09 % INJECTED DOSE PER GRAM
% injected dose per gram ([1]; LUNGS, 20 MIN): 1.13 % INJECTED DOSE PER GRAM
% injected dose per gram ([1]; LUNGS, 30 MIN): 0.92 % INJECTED DOSE PER GRAM
% injected dose per gram ([1]; MUSCLE, 3 MIN): 1.76 % INJECTED DOSE PER GRAM
% injected dose per gram ([1]; MUSCLE, 5 MIN): 2.10 % INJECTED DOSE PER GRAM
% injected dose per gram ([1]; MUSCLE, 10 MIN): 1.24 % INJECTED DOSE PER GRAM
% injected dose per gram ([1]; MUSCLE, 15 MIN): 1.73 % INJECTED DOSE PER GRAM
% injected dose per gram ([1]; MUSCLE, 20 MIN): 0.36 % INJECTED DOSE PER GRAM
% injected dose per gram ([1]; MUSCLE, 30 MIN): 1.27 % INJECTED DOSE PER GRAM
% injected dose per gram ([1]; SKIN, 3 MIN): 5.98 % INJECTED DOSE PER GRAM
% injected dose per gram ([1]; SKIN, 5 MIN): 6.46 % INJECTED DOSE PER GRAM
% injected dose per gram ([1]; SKIN, 10 MIN): 4.21 % INJECTED DOSE PER GRAM
% injected dose per gram ([1]; SKIN, 15 MIN): 2.76 % INJECTED DOSE PER GRAM
% injected dose per gram ([1]; SKIN, 20 MIN): 1.73 % INJECTED DOSE PER GRAM
% injected dose per gram ([1]; SKIN, 30 MIN): 1.42 % INJECTED DOSE PER GRAM
% injected dose per gram ([1]; SPLEEN, 3 MIN): 2.26 % INJECTED DOSE PER GRAM
% injected dose per gram ([1]; SPLEEN, 5 MIN): 2.17 % INJECTED DOSE PER GRAM
% injected dose per gram ([1]; SPLEEN, 10 MIN): 1.28 % INJECTED DOSE PER GRAM
% injected dose per gram ([1]; SPLEEN, 15 MIN): 0.67 % INJECTED DOSE PER GRAM
% injected dose per gram ([1]; SPLEEN, 20 MIN): 0.52 % INJECTED DOSE PER GRAM
% injected dose per gram ([1]; SPLEEN, 30 MIN): 0.35 % INJECTED DOSE PER GRAM
% injected dose per gram ([1]; STOMACH, 3 MIN): 3.53 % INJECTED DOSE PER GRAM
% injected dose per gram ([1]; STOMACH, 5 MIN): 3.04 % INJECTED DOSE PER GRAM
% injected dose per gram ([1]; STOMACH, 10 MIN): 1.84 % INJECTED DOSE PER GRAM
% injected dose per gram ([1]; STOMACH, 15 MIN): 0.89 % INJECTED DOSE PER GRAM
% injected dose per gram ([1]; STOMACH, 20 MIN): 0.70 % INJECTED DOSE PER GRAM
% injected dose per gram ([1]; STOMACH, 30 MIN): 0.65 % INJECTED DOSE PER GRAM
Structure (SMILES): C1CNCC2CNCCNCC(CN1)CNCCNC2.[64Cu+2] [^64Cu-labelled compound (4)]

Copper lost from the chelator [2]: no more than 2%
Structure (SMILES): C1CNCC2CNCCNCC(CN1)CNCCNC2.[67Cu+2] [^67Cu complex of compound (4)]

Clearance of the complex (biodistribution, in words) [1]: clear rapidly from the system
Structure (SMILES): NC12CNCCNCC(N)(CNCCNC1)CNCCNC2 [compound (1)]

The remaining lines, values behind:

Structure (SMILES): NC12C[N]3CC[N]4CC5(NCc6ccc([N+](=O)[O-])cc6)C[N]6CC[N](C1)[Cu]3461[N](CC[N]1C5)C2 [compound (2)]
Clearance of the complex (biodistribution, in words) [1]: clear rapidly from the system

Structure (SMILES): Nc1ccc(CNC23CNCCNCC(N)(CNCCNC2)CNCCNC3)cc1 [compound (3)]
Time to complete complexation of ^64Cu ([3]; all pH ≧4.0): ≤ 1 min
Complexation of ^64Cu (complete complexation) ([3]; all pH ≧4.0, within 1 min, ITLC-SG): > 98%
Rate of complexation of ^64Cu ([3]; pH 3.0, compared with pH ≧4.0): slower
Clearance of the complex (biodistribution, in words) [4]: clear rapidly from the system
